Laboratory results published in the supplement of paper PMC11616607.

tested on: COV318; assay: drug sensitivity score (DSS) from 5-point dose-response viability curve (DSS (area-under-curve based score)); higher = more sensitive (stronger growth inhibition or killing); extreme values may be limits of the assay; details: exposure time: 72 h; concentration range: 5 concentrations over 10,000-fold range
Method in brief: (§1)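 Each cell line and drug received a drug sensitivity score from Breeze software, where higher means more sensitive. Zero stands for no response. Scores came from CellTiter-Glo viability readings of ovarian cancer and normal ovarian cells, 1,500 per well in 384-well plates, after 3 days at 37°C, 5% CO2 with drugs at five concentrations over a 10,000-fold range.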

Compound | drug sensitivity score
CC(C)(C)C[C@@H]1N[C@@H](C(=O)N[C@H]2CC[C@H](O)CC2)[C@H](c2cccc(Cl)c2F)[C@]12C(=O)Nc1cc(Cl)ccc12 | 0.3
CC(C)Oc1ccc(C(=O)N[C@H](CNC(=O)CN(C)C)Cc2ccc(-c3cn4cccc([C@H](C)O)c4n3)cc2)cc1Cl | 3.9
CC[C@@H]1[C@H](F)C(=O)N[C@@H]1COc1nccc2cc(C(N)=O)c(OC)cc12 | 0
CCc1cncnc1N1CCN(Cc2nc3ccc(C(F)(F)F)cc3[nH]2)CC1 | 1.1
CCn1c(-c2nonc2N)nc2cnc(Oc3cccc(NC(=O)c4ccc(OCCN5CCOCC5)cc4)c3)cc21 | 5.7
CN(C)CC#Cc1ccc(OCCCc2sc(N3CCc4cccc(C(=O)Nc5nc6ccccc6s5)c4C3)nc2C(=O)O)c(F)c1 | 1.3
CN(c1ncccc1CNc1nc(Nc2ccc3c(c2)CC(=O)N3)ncc1C(F)(F)F)S(C)(=O)=O | 1.9
CNC(=O)c1ccc(C)c(-n2c(C)cc(OCc3ccc(F)cc3F)c(Br)c2=O)c1 | 0
CNS(=O)(=O)Nc1nccc(Cc2c(C)c3ccc(Oc4ncccn4)cc3oc2=O)c1F | 0
CNc1ncc2cc(-c3cc(NC(=O)NCCC(C)(C)C)c(F)cc3C)c(C)nc2n1 | 0.8
CO[C@@H](C)Cn1c(=O)n(C)c2cnc3ccc(-c4cncc(C(C)(C)O)c4)cc3c21 | 6.8
COc1ccc(Cn2ccc3ccc(C(=O)NO)cc32)cc1 | 0
C[C@@H](Oc1ccc2[nH]nc(/C=C/c3cnn(CCO)c3)c2c1)c1c(Cl)cncc1Cl | 2.3
C[C@@H]1CN(CC(=O)Nc2ccc3c(c2)Cc2cccc(-c4cc(=O)cc(N5CCOCC5)o4)c2S3)C[C@H](C)O1 | 0
C[C@H]1C[C@@H](n2c(Nc3ccc(OC(F)(F)F)cc3)nc3cc(CCC(=O)O)ccc32)CC(C)(C)C1 | 0
Cc1c(-c2c(-c3ccc(F)o3)sc3ncnc(O[C@H](Cc4ccccc4OCc4ccnn4CC(F)(F)F)C(=O)O)c23)ccc(OCCN2CCN(C)CC2)c1Cl | 0.2

Compound | drug sensitivity score
Cc1c(Cn2c(C)nc3c(C(=O)O)cc(N4CCOCC4)cc32)cccc1C(F)(F)F | 0
Cc1ccc(C(=O)N(CCCN)[C@@H](c2oc3cc(Cl)ccc3c(=O)c2Cc2ccccc2)C(C)C)cc1 | 1
Cc1cccc(CC(=O)N2CCc3c2ccc(-c2cn(C)c4ncnc(N)c24)c3F)n1 | 0
Cc1nc(Nc2n[nH]c3c2CN(C(=O)N[C@H](CN(C)C)c2ccccc2)C3(C)C)c2sccc2n1 | 7.2
Cc1ncc(Cl)cc1NCc1ccc(C(=O)N[C@@H](CC2CCCC2)C(=O)NC2CC2)s1 | 0
Cn1cc(-c2ccc(F)c(C(F)(F)F)c2)nc1C1CCN(c2ncnc3[nH]ncc23)CC1 | 0
Cn1cc(C2=Nc3cc(NC(=O)C(N)C4CCCCC4)cc4c3C2=CNNC4=O)cn1 (stereo unspecified) | 6.2
N#Cc1ccc(COC[C@H]2O[C@@H](n3c(NCc4ccc(Cl)c(Cl)c4)nc4c(N)ncnc43)[C@H](O)[C@@H]2O)cc1 | 0.1
NCC(=O)Nc1ccc(-n2nc(C(F)(F)F)cc2-c2ccc3c(ccc4ccccc43)c2)cc1 | 2.8
NC[C@@](O)(c1ccc(Cl)cc1)c1ccc(-c2cn[nH]c2)cc1 | 3.3
Nc1nccc(-c2c(-c3ccc(F)cc3)ncn2C2CCCCC2)n1 | 0
Nc1ncnc2c1c(COc1cccc(Cl)c1)nn2C1CCOCC1 | 0
O=C(NOC[C@H](O)CO)c1ccc(F)c(F)c1Nc1ccc(I)cc1F | 0
O=C(Nc1ccc2[nH]nc(-c3ccncc3)c2c1)[C@@H]1CCN(CC(=O)N2CCN(c3ccc(-c4ncccn4)cc3)CC2)C1 | 0
O=C(O)c1ccc(-c2c[nH]c3ncc(-c4ccccc4)cc23)cc1C1CCCC1 | 0
O=C(O)c1ccc(CN2CCC(CN[C@@H]3C[C@H]3c3ccccc3)CC2)cc1 | 0

tested on: Ovsaho; assay: as above; details: exposure time: 72 h; concentration range: 5 concentrations over 10,000-fold range
Method in brief: as §1

Compound | drug sensitivity score
CC(C)(C)C[C@@H]1N[C@@H](C(=O)N[C@H]2CC[C@H](O)CC2)[C@H](c2cccc(Cl)c2F)[C@]12C(=O)Nc1cc(Cl)ccc12 | 1.4
CC(C)Oc1ccc(C(=O)N[C@H](CNC(=O)CN(C)C)Cc2ccc(-c3cn4cccc([C@H](C)O)c4n3)cc2)cc1Cl | 10.2
CC[C@@H]1[C@H](F)C(=O)N[C@@H]1COc1nccc2cc(C(N)=O)c(OC)cc12 | 2.3
CCc1cncnc1N1CCN(Cc2nc3ccc(C(F)(F)F)cc3[nH]2)CC1 | 1.2
CCn1c(-c2nonc2N)nc2cnc(Oc3cccc(NC(=O)c4ccc(OCCN5CCOCC5)cc4)c3)cc21 | 0.9
CN(C)CC#Cc1ccc(OCCCc2sc(N3CCc4cccc(C(=O)Nc5nc6ccccc6s5)c4C3)nc2C(=O)O)c(F)c1 | 10.4
CN(c1ncccc1CNc1nc(Nc2ccc3c(c2)CC(=O)N3)ncc1C(F)(F)F)S(C)(=O)=O | 5.7
CNC(=O)c1ccc(C)c(-n2c(C)cc(OCc3ccc(F)cc3F)c(Br)c2=O)c1 | 0
CNS(=O)(=O)Nc1nccc(Cc2c(C)c3ccc(Oc4ncccn4)cc3oc2=O)c1F | 0.3
CNc1ncc2cc(-c3cc(NC(=O)NCCC(C)(C)C)c(F)cc3C)c(C)nc2n1 | 8.9
CO[C@@H](C)Cn1c(=O)n(C)c2cnc3ccc(-c4cncc(C(C)(C)O)c4)cc3c21 | 10.9
COc1ccc(Cn2ccc3ccc(C(=O)NO)cc32)cc1 | 2.6
C[C@@H](Oc1ccc2[nH]nc(/C=C/c3cnn(CCO)c3)c2c1)c1c(Cl)cncc1Cl | 4.9
C[C@@H]1CN(CC(=O)Nc2ccc3c(c2)Cc2cccc(-c4cc(=O)cc(N5CCOCC5)o4)c2S3)C[C@H](C)O1 | 3.4
C[C@H]1C[C@@H](n2c(Nc3ccc(OC(F)(F)F)cc3)nc3cc(CCC(=O)O)ccc32)CC(C)(C)C1 | 0
Cc1c(-c2c(-c3ccc(F)o3)sc3ncnc(O[C@H](Cc4ccccc4OCc4ccnn4CC(F)(F)F)C(=O)O)c23)ccc(OCCN2CCN(C)CC2)c1Cl | 0

Compound | drug sensitivity score
Cc1c(Cn2c(C)nc3c(C(=O)O)cc(N4CCOCC4)cc32)cccc1C(F)(F)F | 3.8
Cc1ccc(C(=O)N(CCCN)[C@@H](c2oc3cc(Cl)ccc3c(=O)c2Cc2ccccc2)C(C)C)cc1 | 4.1
Cc1cccc(CC(=O)N2CCc3c2ccc(-c2cn(C)c4ncnc(N)c24)c3F)n1 | 0
Cc1nc(Nc2n[nH]c3c2CN(C(=O)N[C@H](CN(C)C)c2ccccc2)C3(C)C)c2sccc2n1 | 9
Cc1ncc(Cl)cc1NCc1ccc(C(=O)N[C@@H](CC2CCCC2)C(=O)NC2CC2)s1 | 0
Cn1cc(-c2ccc(F)c(C(F)(F)F)c2)nc1C1CCN(c2ncnc3[nH]ncc23)CC1 | 0
Cn1cc(C2=Nc3cc(NC(=O)C(N)C4CCCCC4)cc4c3C2=CNNC4=O)cn1 (stereo unspecified) | 6.8
N#Cc1ccc(COC[C@H]2O[C@@H](n3c(NCc4ccc(Cl)c(Cl)c4)nc4c(N)ncnc43)[C@H](O)[C@@H]2O)cc1 | 4.5
NCC(=O)Nc1ccc(-n2nc(C(F)(F)F)cc2-c2ccc3c(ccc4ccccc43)c2)cc1 | 4.9
NC[C@@](O)(c1ccc(Cl)cc1)c1ccc(-c2cn[nH]c2)cc1 | 0
Nc1nccc(-c2c(-c3ccc(F)cc3)ncn2C2CCCCC2)n1 | 0
Nc1ncnc2c1c(COc1cccc(Cl)c1)nn2C1CCOCC1 | 0
O=C(NOC[C@H](O)CO)c1ccc(F)c(F)c1Nc1ccc(I)cc1F | 13.5
O=C(Nc1ccc2[nH]nc(-c3ccncc3)c2c1)[C@@H]1CCN(CC(=O)N2CCN(c3ccc(-c4ncccn4)cc3)CC2)C1 | 14.1
O=C(O)c1ccc(-c2c[nH]c3ncc(-c4ccccc4)cc23)cc1C1CCCC1 | 0
O=C(O)c1ccc(CN2CCC(CN[C@@H]3C[C@H]3c3ccccc3)CC2)cc1 | 0

tested on: COV362; assay: as above; details: exposure time: 72 h; concentration range: 5 concentrations over 10,000-fold range
Method in brief: as §1

Compound | drug sensitivity score
CC(C)(C)C[C@@H]1N[C@@H](C(=O)N[C@H]2CC[C@H](O)CC2)[C@H](c2cccc(Cl)c2F)[C@]12C(=O)Nc1cc(Cl)ccc12 | 1.2
CC(C)Oc1ccc(C(=O)N[C@H](CNC(=O)CN(C)C)Cc2ccc(-c3cn4cccc([C@H](C)O)c4n3)cc2)cc1Cl | 6
CC[C@@H]1[C@H](F)C(=O)N[C@@H]1COc1nccc2cc(C(N)=O)c(OC)cc12 | 0
CCc1cncnc1N1CCN(Cc2nc3ccc(C(F)(F)F)cc3[nH]2)CC1 | 0
CCn1c(-c2nonc2N)nc2cnc(Oc3cccc(NC(=O)c4ccc(OCCN5CCOCC5)cc4)c3)cc21 | 0.2
CN(C)CC#Cc1ccc(OCCCc2sc(N3CCc4cccc(C(=O)Nc5nc6ccccc6s5)c4C3)nc2C(=O)O)c(F)c1 | 1.6
CN(c1ncccc1CNc1nc(Nc2ccc3c(c2)CC(=O)N3)ncc1C(F)(F)F)S(C)(=O)=O | 3.5
CNC(=O)c1ccc(C)c(-n2c(C)cc(OCc3ccc(F)cc3F)c(Br)c2=O)c1 | 0
CNS(=O)(=O)Nc1nccc(Cc2c(C)c3ccc(Oc4ncccn4)cc3oc2=O)c1F | 0
CNc1ncc2cc(-c3cc(NC(=O)NCCC(C)(C)C)c(F)cc3C)c(C)nc2n1 | 4.2
CO[C@@H](C)Cn1c(=O)n(C)c2cnc3ccc(-c4cncc(C(C)(C)O)c4)cc3c21 | 3.8
COc1ccc(Cn2ccc3ccc(C(=O)NO)cc32)cc1 | 0
C[C@@H](Oc1ccc2[nH]nc(/C=C/c3cnn(CCO)c3)c2c1)c1c(Cl)cncc1Cl | 2.2
C[C@@H]1CN(CC(=O)Nc2ccc3c(c2)Cc2cccc(-c4cc(=O)cc(N5CCOCC5)o4)c2S3)C[C@H](C)O1 | 1.2
C[C@H]1C[C@@H](n2c(Nc3ccc(OC(F)(F)F)cc3)nc3cc(CCC(=O)O)ccc32)CC(C)(C)C1 | 0
Cc1c(-c2c(-c3ccc(F)o3)sc3ncnc(O[C@H](Cc4ccccc4OCc4ccnn4CC(F)(F)F)C(=O)O)c23)ccc(OCCN2CCN(C)CC2)c1Cl | 0.4

Compound | drug sensitivity score
Cc1c(Cn2c(C)nc3c(C(=O)O)cc(N4CCOCC4)cc32)cccc1C(F)(F)F | 0
Cc1ccc(C(=O)N(CCCN)[C@@H](c2oc3cc(Cl)ccc3c(=O)c2Cc2ccccc2)C(C)C)cc1 | 0.4
Cc1cccc(CC(=O)N2CCc3c2ccc(-c2cn(C)c4ncnc(N)c24)c3F)n1 | 0
Cc1nc(Nc2n[nH]c3c2CN(C(=O)N[C@H](CN(C)C)c2ccccc2)C3(C)C)c2sccc2n1 | 7.3
Cc1ncc(Cl)cc1NCc1ccc(C(=O)N[C@@H](CC2CCCC2)C(=O)NC2CC2)s1 | 0
Cn1cc(-c2ccc(F)c(C(F)(F)F)c2)nc1C1CCN(c2ncnc3[nH]ncc23)CC1 | 0
Cn1cc(C2=Nc3cc(NC(=O)C(N)C4CCCCC4)cc4c3C2=CNNC4=O)cn1 (stereo unspecified) | 5.2
N#Cc1ccc(COC[C@H]2O[C@@H](n3c(NCc4ccc(Cl)c(Cl)c4)nc4c(N)ncnc43)[C@H](O)[C@@H]2O)cc1 | 0.5
NCC(=O)Nc1ccc(-n2nc(C(F)(F)F)cc2-c2ccc3c(ccc4ccccc43)c2)cc1 | 0
NC[C@@](O)(c1ccc(Cl)cc1)c1ccc(-c2cn[nH]c2)cc1 | 0
Nc1nccc(-c2c(-c3ccc(F)cc3)ncn2C2CCCCC2)n1 | 0
Nc1ncnc2c1c(COc1cccc(Cl)c1)nn2C1CCOCC1 | 0
O=C(NOC[C@H](O)CO)c1ccc(F)c(F)c1Nc1ccc(I)cc1F | 2.4
O=C(Nc1ccc2[nH]nc(-c3ccncc3)c2c1)[C@@H]1CCN(CC(=O)N2CCN(c3ccc(-c4ncccn4)cc3)CC2)C1 | 4.9
O=C(O)c1ccc(-c2c[nH]c3ncc(-c4ccccc4)cc23)cc1C1CCCC1 | 0.1
O=C(O)c1ccc(CN2CCC(CN[C@@H]3C[C@H]3c3ccccc3)CC2)cc1 | 0
